Measured values published in ChEMBL document CHEMBL1201862, “PubChem BioAssay data set” (2004).
Activity calls are given as the source filed them.

Columns and labels:
[1] = target: T1, Microphthalmia-associated transcription factor (Homo sapiens, UniProt O75030); test: TRPM1 promoter luciferase signal decrease, dose response, MITF inhibitor project, cell-based, SK-MEL-5, cherry-picked, set 3 (AID 493073); type: functional
T1 sequence (O75030 whole entry): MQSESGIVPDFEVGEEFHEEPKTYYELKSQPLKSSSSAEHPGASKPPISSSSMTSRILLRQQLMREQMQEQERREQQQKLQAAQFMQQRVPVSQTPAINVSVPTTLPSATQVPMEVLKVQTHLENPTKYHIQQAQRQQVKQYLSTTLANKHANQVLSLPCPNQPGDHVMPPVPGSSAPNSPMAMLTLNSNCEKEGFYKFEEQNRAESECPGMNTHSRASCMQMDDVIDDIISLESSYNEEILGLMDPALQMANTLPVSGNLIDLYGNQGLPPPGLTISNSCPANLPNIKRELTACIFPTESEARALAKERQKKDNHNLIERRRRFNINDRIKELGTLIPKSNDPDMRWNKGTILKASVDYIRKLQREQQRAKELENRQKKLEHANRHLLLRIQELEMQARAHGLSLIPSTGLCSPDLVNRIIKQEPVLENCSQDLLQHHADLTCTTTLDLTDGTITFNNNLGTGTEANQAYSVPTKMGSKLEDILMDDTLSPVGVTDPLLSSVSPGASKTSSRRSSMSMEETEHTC

Cytochrome P450 3A4 = Cytochrome P450 3A4 (Homo sapiens, UniProt P08684); settings: Potency;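 note: confirmatory qHTS run detecting inhibitors and substrates of CYP3A4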
Vero = test: cells; type: functional; settings: Chlorocebus sabaeus
[2] = target: Heat shock protein HSP 90-alpha (Homo sapiens, UniProt P07900); type: functional, organism-based
[3] = control 3'UTR Renilla luciferase suppression, dose response, counter-screen for Shn3 inhibitor project, cell-based, Clone20-Shn3RL, cherry-picked (AID 624133); type: functional
[4] = HepG2 cell cytotoxicity, dose response, cytotoxicity control for Shn3 inhibitor project, CellTiter-Glo, cherry-picked (AID 624134); type: functional, cell-based
[5] = Shn3 3'UTR reporter inhibitors, dose response, cell-based, Clone20 osteoblasts, firefly luciferase, cherry-picked (AID 624132); type: functional;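 note: firefly luciferase luminescence from reporter carrying the Shn3 3'UTR in osteoblasts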
[6] = inhibitors of clade B AD8 Env fusion, dose response, cell-based, cherry-pick (AID 652062); type: functional;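 note: luciferase signal from cell-cell fusion driven by HIV-1 clade B AD8 Env; potency is for inhibitors of fusion seen as a drop in luminescence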
[7] = target: Eukaryotic translation initiation factor 4E (Mus musculus, UniProt P63073); test: eIF4E–eIF4G protein interaction inhibitors, dose response, biochemical, TR-FRET (AID 855); type: functional;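 note: potency for disrupting eIF4E binding to eIF4GI seen as loss of FRET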
Nonstructural protein 1 = Nonstructural protein 1 (Influenza A virus, UniProt Q194T2); type: functional, Influenza A virus (A/California/07/2009(H1N1))
[8] = target: Glyceraldehyde-3-phosphate dehydrogenase (Homo sapiens, UniProt P04406)
[9] = target: T2, Long-chain-fatty-acid--AMP ligase FadD28 (Mycobacterium tuberculosis, UniProt P9WQ59); test: Fluorescence polarization aasay to screen for inhibitors that compete for the binding of FadD28 to a bisubstrate Measured in Biochemical System Using Plate Reader - 2147-01_Inhibitor_Dose_CherryPick_Activity.; type: functional, Mycobacterium tuberculosis H37Rv
T2 sequence (P9WQ59 whole entry): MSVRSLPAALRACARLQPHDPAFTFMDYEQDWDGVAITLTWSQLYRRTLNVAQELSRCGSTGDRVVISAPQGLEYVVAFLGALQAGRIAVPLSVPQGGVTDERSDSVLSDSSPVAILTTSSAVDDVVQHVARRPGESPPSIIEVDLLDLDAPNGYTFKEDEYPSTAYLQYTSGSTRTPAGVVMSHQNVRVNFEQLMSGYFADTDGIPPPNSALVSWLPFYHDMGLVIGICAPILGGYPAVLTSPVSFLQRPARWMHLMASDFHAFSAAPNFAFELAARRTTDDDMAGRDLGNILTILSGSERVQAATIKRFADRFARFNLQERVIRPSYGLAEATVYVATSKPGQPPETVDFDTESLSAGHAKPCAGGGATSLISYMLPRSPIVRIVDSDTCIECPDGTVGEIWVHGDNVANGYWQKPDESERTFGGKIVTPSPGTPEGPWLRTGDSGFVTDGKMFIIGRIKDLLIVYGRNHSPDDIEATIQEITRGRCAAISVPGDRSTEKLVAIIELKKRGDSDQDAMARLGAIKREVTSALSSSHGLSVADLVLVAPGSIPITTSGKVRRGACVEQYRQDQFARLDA

[10] = growth suppression of beta-catenin-knockout colon cells, dose response, cell-based, HCT116, human colon tumor (AID 1045); type: functional;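 note: HCT116 colon tumor cells with beta catenin knocked out; cells exposed to compound for 60 hours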
HEK293 [11] = test: NOD2 signaling inhibitors in MDP-stimulated cells, cell-based, uHTS, luminescence (AID 2001); type: functional; settings: Homo sapiens
HEK293 [12] = test: NOD1 signaling inhibitors, primary screen, cell-based, luminescence, uHTS (AID 1578); type: functional; settings: Homo sapiens
[13] = growth suppression of PTEN-null colon cells, dose response, cell-based, HCT116 PTEN knockout (AID 1047); type: functional;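 note: HCT116 colon tumor cells with PTEN knocked out; cells exposed to compound for 60 hours before readout; potency for loss of cell viability measured by luminescence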
HEK293 [14] = test: cells; type: functional, cell-based; settings: Homo sapiens
HEK293 [15] = test: cells; type: functional, cell-based; settings: Homo sapiens; remark: listed apart in the source
[16] = target: Luciferin 4-monooxygenase (Photinus pyralis, UniProt P08659); test: firefly luciferase enzyme inhibitors, dose response, biochemical, luminescence (AID 1891)
[17] = Luminescence Cell-Based Dose Confirmation HTS to Identify Inhibitors of Platelet Dense Granule Release. [Related pubchem assays: 1663 (Primary HTS), 1678 (Summary of Project)]; type: functional

Structure (SMILES): CC(C)N1C/C(=C/c2cccnc2)C(=O)/C(=C/c2cccnc2)C1
- AC50 [1]: 14.2 µM (active)

Structure (SMILES): CC(=O)Nc1ccc(C2C(C)CCC3C(=O)N4C(CCC(C)[C@@H]4c4ccc(NC(C)=O)cc4)C(=O)N32)cc1 (some centres not stated)
- AC50 (Cytochrome P450 3A4): 3.16 µM (inconclusive)

Structure (SMILES): N#Cc1c(NCCN)nc(-c2ccccc2)c2c1CCCC2
- CC50 (Vero): 16.4 µM (active)

Structure (SMILES): O=S(=O)(Nc1nc2ccccc2nc1N1CCN(c2ccccn2)CC1)c1ccc(Cl)cc1
- AC50 [2]: 6.23 µM (active)

Structure (SMILES): COc1cc2ccnc(Cc3cccc(OC)c3OC)c2cc1OC
- AC50 [3]: 5.35 µM (active)
- AC50 [4]: 40.7 µM (active)
- AC50 [5]: 4.64 µM (active)

Structure (SMILES): O=C1Nc2ccc(Br)cc2/C1=C/C1CC=CCC1 (configuration not stated)
- AC50 [2]: 8.03 µM (active)

Structure (SMILES): CCC(NCc1ccc(F)cc1)=C1C(=O)N(C)C(=O)N(C)C1=O
- AC50 [6]: 12.2 µM (active)

Structure (SMILES): CCNCC(O)COCC(O)CNCC (configuration not stated)
- IC50 [7]: > 64 µM (inactive)

Structure (SMILES): Cc1ccc(S(=O)(=O)CCC(=O)NCc2ccccc2Cl)cc1
- IC50 [7]: > 64 µM (inactive)

Structure (SMILES): O=C(Nc1nc(-c2ccccn2)cs1)C1COc2ccccc2O1 (configuration not stated)
- IC50 (Nonstructural protein 1): 10.7 µM (active)
- AC50 [3]: 4.69 µM (active)
- AC50 [4]: 47.6 µM (active)
- CC50 (Vero): 10 µM (active)
- AC50 [2]: 5.85 µM (active)
- AC50 [5]: 5.81 µM (active)

Structure (SMILES): O=C(O)CS(=O)(=O)c1ccc(-c2ccc(S(=O)(=O)CC(=O)O)cc2)cc1
- IC50 [8]: > 100 µM (not active)

Structure (SMILES): CCCn1c(-c2ccc(F)cc2)nc2c(NC3CC4CCC(C3)N4C)nc(C)nc21 (configuration not stated)
- AC50 (Cytochrome P450 3A4): 15.8 µM (inconclusive)

Structure (SMILES): COc1ccc(C(=O)Cn2nnc(-c3ccccc3F)n2)cc1
- AC50 [9]: > 100 µM (inactive)

Structure (SMILES): CCOc1cc(C=C(C(=O)OC)C(=O)OC)ccc1OCc1ccc([N+](=O)[O-])cc1
- EC50 [10]: 16.9 µM (active)
- IC50 (HEK293 [11]): 5.8 µM (active)
- EC50 (HEK293 [12]): 11.9 µM (active)
- EC50 [13]: 18 µM (active)
- IC50 (HEK293 [14]): > 20 µM (inactive)
- IC50 (HEK293 [15]): 3.72 µM (active)

Structure (SMILES): COc1ccc(CNC(=O)c2cc3c(C)nc4ccccc4c3o2)c(OC)c1
- AC50 [3]: 2.47 µM (active)
- EC50 [16]: > 112 µM (not active)
- AC50 [4]: 3.5 µM (active)
- EC50 [17]: > 112 µM (not active)
- AC50 [5]: 3.22 µM (active)

Structure (SMILES): Cc1nc(N2CCOCC2)c2nc(-c3ccccc3)n(CCN3CCOCC3)c2n1
- AC50 (Cytochrome P450 3A4): 10 µM (inconclusive)
